How the values were obtained:
Assay type in all cases: cell-based
SW480 colon cancer cells = assay: Cell viability assay (CellTiter-Blue); settings: Homo sapiens, 96 h, four days
Experimental: Representative compounds were screened using the following assay procedure to assess the effect on cell viability as described below.
Each compound was dissolved in DMSO as a 10 mM stock and used to prepare compound source plates. Serial dilution (1:3, 8-point dose-response curves from 10 μM to 0.0045 μM) and compound transfer was performed using the ECHO 550 (Labcyte, Sunnyvale, Calif.) into 96-well clear bottom, black-walled plates (Corning-Costar).
Approximately 2×10^3 SW480 colon cancer cells were seeded into each well and allowed to incubate in the presence or absence of compound for four days at 37° C./5% CO2. Eight replicates of DMSO-treated cells served as controls and cells treated with compound were performed in duplicate.
After incubation, 20 μL of CellTiter-Blue (Promega) was added to each well allowed to incubate for approximately 3 hours. This reagent was a buffered solution which contains resazurin, metabolically active cells were able to reduce rezarurin (blue) into resorufin (pink) which was highly fluorescent. This measured fluorescence was used as a readout for cell viability.
After incubation, the plates were read at Ex 560 nm Em 590 nm (Cytation 3, BioTek). Dose-response curves were generated and EC50 concentration values were calculated using non-linear regression curve fit in the GraphPad Prism (San Diego, Calif.) or Dotmatics' Studies Software (Bishops Stortford, UK). For EC50 of >10 μM, the percent inhibition at 10 μM is provided.

IL-6 (THP-1 cells) = assay: IL-6 inhibition in LPS-stimulated THP-1 cells (HTRF); settings: Homo sapiens; IL-6 in THP-1 cells, LPS 500 ng/mL, 22 hours
Experimental: Human monocyte cell line (THP-1 cells; Catalog # TIB-202, ATCC, Manassas, Va.) were cultured in Roswell Park Memorial Institute (RPMI) 1640 Medium (Catalog #21870-100, Buffalo, N.Y.) with 1% L-glutamine, 1% HEPES, 1% Sodium Pyruvate, 2% Sodium Bicarbonate supplemented with 100 units/mL penicillin, 50 μg/mL streptomycin, 2-mercaptoethanol (0.05 mM) [basal medium] and 10% fetal bovine serum (Catalog #16140089, Life Technologies, Carlsbad, Calif.) at 37° C. and 5% CO2.
THP-1 cells were cultured in basal media with 1% FBS for 24 hours before the start of the assay. Each compound was dissolved in DMSO as a 10 mM stock and used to prepare compound source plates. Serial dilution (1:3, 10-point dose-response curves starting from 10 μM) and compound transfer was performed using the ECHO 550 (Labcyte, Sunnyvale, Calif.) into 384-well white low volume assay plates (Greiner Bio-One) with appropriate DMSO backfill for a final DMSO concentration of 0.1%. THP-1 cells were plated at 5000 cells/well in the 384-well plates and incubated at 37° C. for 2 h. 500 ng/mL of LPS was added after 2 hours and cells were incubated for another 22 hours at 37° C. Plates were spun in a centrifuge for 1 minute at […] and a mixture of anti-IL6 XL665, and anti-IL6 Cryptate diluted in reconstitution buffer (Cisbio Inc.) was added to each well. Following incubation for 3 hrs at room temperature, Homogeneous Time-Resolved Fluorescence (HTRF) was measured using the Envision (Perkin Elmer) at 665 nm and […]. The ratio of fluorescence at 665 nm to 620 nm was used as a readout for IL6 quantification. All samples were processed in duplicate. Readings were normalized to DMSO treated cells and normalized activities were utilized for EC50 calculations using the dose-response log (inhibitor) vs. response-variable slope (four parameters) nonlinear regression feature available in GraphPad Prism 5.0 (or Dotmatics). For EC50 of >10 μM, the percent inhibition at 10 μM is provided.

[1] = test system: Wnt activity (Sp5-Luc reporter, SW480 colon carcinoma cells); assay: Wnt activity screening assay, Sp5-Luc reporter gene in SW480 cells; settings: Homo sapiens, overnight incubation
Source text: The screening assay for Wnt activity is described as follows. Reporter cell lines can be generated by stably transducing cancer cell lines (e.g., colon cancer) or primary cells (e.g., IEC-6 intestinal cells) with a lentiviral construct that includes a Wnt-responsive promoter driving expression of the firefly luciferase gene.
SW480 colon carcinoma cells were transduced with a lentiviral vector expressing luciferase with a human Sp5 promoter consisting of a sequence of eight TCF/LEF binding sites. SW480 cells stably expressing the Sp5-Luc reporter gene and a hygromycin resistance gene were selected by treatment with 150 μg/mL of hygromycin for 7 days. These stably transduced SW480 cells were expanded in cell culture and used for all further screening activities. Each compound was dissolved in DMSO as a 10 mM stock and used to prepare compound source plates. Serial dilution (1:3, 10-point dose-response curves starting from 10 μM) and compound transfer was performed using the ECHO 550 (Labcyte, Sunnyvale, Calif.) into 384-well white solid bottom assay plates (Greiner Bio-One) with appropriate DMSO backfill for a final DMSO concentration of 0.1%. For Sp5-Luc reporter gene assays, the cells were plated at 4,000 cells/well in 384-well plates with medium containing 1% fetal bovine serum and incubated overnight at 37° C. and 5% CO2. Following incubation, 20 μl of BrightGlo luminescence reagent (Promega) was added to each well of the 384-well assay plates. The plates were placed on an orbital shaker for 2 min and then luminescence was quantified using the Envision (Perkin Elmer) plate reader. Readings were normalized to DMSO only treated cells, and normalized activities were utilized for EC50 calculations using the dose-response log (inhibitor) vs. response-variable slope (four parameters) nonlinear regression feature available in GraphPad Prism 5.0 (or Dotmatics). For EC50 of >10 μM, the percent inhibition at 10 μM is provided.

[2] = test system: primary human fibroblasts derived from IPF patients (LL29 cells) treated with TGF-β1; assay: Inhibition of fibrotic process, αSMA staining in TGF-β1 treated LL29 fibroblasts; settings: Fibroblast, 96 h, % αSMA positive LL29 cells, TGF-β1 20 ng/mL, 4 days
Source text: Representative compounds were screened using primary human fibroblasts (derived from IPF patients) treated with TGF-β1 to determine their ability to inhibit the fibrotic process.
Primary human fibroblasts derived from IPF patients (LL29 cells) [^1Xiaoqiu Liu, et. al., “Fibrotic Lung Fibroblasts Show Blunted Inhibition by cAMP Due to Deficient cAMP Response Element-Binding Protein Phosphorylation”, Journal of Pharmacology and Experimental Therapeutics (2005), 315(2), 678-687; ^2Watts, K. L., et. al., “RhoA signaling modulates cyclin D1 expression in human lung fibroblasts; implications for idiopathic pulmonary fibrosis”, Respiratory Research (2006), 7(1), 88] were obtained from American Type Culture Collection (ATCC) and expanded in F12 medium supplemented with 15% Fetal Bovine Serum and Penicillin/Streptomycin.
Each compound was dissolved in DMSO as a 10 mM stock and used to prepare compound source plates. Serial dilution (1:2, 11-point dose-response curves from 10 μM to 1.87 nM) and compound transfer was performed using the ECHO 550 (Labcyte, Sunnyvale, Calif.) into 384-well clear bottom assay plates (Greiner Bio-One) with appropriate DMSO backfill for a final DMSO concentration of 0.1%. LL29 cells are plated at 1,500 cells/well in 80 μL/well F12 medium supplemented with 1% Fetal Bovine Serum. One hour after addition of the cells, TGF-β1 (Peprotech; 20 ng/mL) was added to the plates to induce fibrosis (ref. 1 and 2 above). Wells treated with TGF-β1 and containing DMSO were used as controls. Cells were incubated at 37° C. and 5% CO2 for 4 days. Following incubation for 4 days, SYTOX green nucleic acid stain (Life Technologies [Thermo Fisher Scientific]) was added to the wells at a final concentration of 1 μM and incubated at room temperature for 30 min. Cells were then fixed using 4% formaldehyde (Electron Microscopy Sciences), washed 3 times with PBS followed by blocking and permeabilization using 3% Bovine Serum Albumin (BSA; Sigma) and 0.3% Triton X-100 (Sigma) in PBS. Cells were then stained with antibody specific to α-smooth muscle actin (αSMA; Abcam) (ref. 1 and 2 above) in 3% Bovine Serum Albumin (BSA; Sigma) and 0.3% Triton X-100 (Sigma) in PBS, and incubated overnight at 4° C. Cells were then washed 3 times with PBS, followed by incubation with Alexa Flor-647 conjugated secondary antibody (Life Technologies [Thermo Fisher Scientific]) and DAPI at room temperature for 1 hour. Cells were then washed 3 times with PBS and plates were sealed for imaging. αSMA staining was imaged by excitation at 630 nm and emission at 665 nm and quantified using the Compartmental Analysis program on the CellInsight CX5 (Thermo Scientific). Dead or apoptotic cells were excluded from analysis based on positive SYTOX green staining. % of total cells positive for αSMA were counted in each well and normalized to the average of 11 wells treated with TGF-β1 on the same plate using Dotmatics' Studies Software. The normalized averages (fold change over untreated) of 3 replicate wells for each compound concentration were used to create dose-responses curves and EC50 values were calculated using non-linear regression curve fit in the Dotmatics' Studies Software. For EC50 of >10 μM, the percent inhibition at 10 μM is provided.

With `Cc1ccncc1-c1cc2c(-c3cc4c(-c5ccc(F)cc5)ccnc4[nH]3)n[nH]c2cn1` [Compound 33, 3-(4-(4-Fluorophenyl)-1H-pyrrolo[2,3-b]pyridin-2-yl)-5-(4-methylpyridin-3-yl)-1H-pyrazolo[3,4-c]pyridine] the EC50 (SW480 colon cancer cells) was 1050 nM, the EC50 (IL-6 (THP-1 cells)) was 4050 nM and the EC50 [1] was 642 nM. It also gave an EC50 [2] of 146 nM.

`CC(C)C(=O)Nc1cncc(-c2cc3c(-c4cc5c(N6CCCCC6)ccnc5[nH]4)n[nH]c3cn2)c1` [Compound 177, N-(5-(3-(4-(Piperidin-1-yl)-1H-pyrrolo[2,3-b]pyridin-2-yl)-1H-pyrazolo[3,4-c]pyridin-5-yl)pyridin-3-yl)isobutyramide] was tested, and the EC50 (SW480 colon cancer cells) was 1080 nM, the EC50 (IL-6 (THP-1 cells)) was 9850 nM and the EC50 [1] was 867 nM. The EC50 [2] was 1490 nM.

`Cc1ncc(-c2cc3c(-c4cc5c(-c6cccs6)ccnc5[nH]4)n[nH]c3cn2)n1C` [Compound 701, 5-(1,2-Dimethyl-1H-imidazol-5-yl)-3-(4-(thiophen-2-yl)-1H-pyrrolo[2,3-b]pyridin-2-yl)-1H-pyrazolo[3,4-c]pyridine] gave an EC50 (SW480 colon cancer cells) of 1220 nM, an EC50 (IL-6 (THP-1 cells)) of 988 nM and an EC50 [1] of 1060 nM. It also gave an EC50 [2] of 928 nM.

Compound `CC(C)Nc1cncc(-c2cc3c(-c4cc5c(-c6ccc(F)cc6)ccnc5[nH]4)n[nH]c3cn2)c1` [Compound 40, 5-(3-(4-(4-Fluorophenyl)-1H-pyrrolo[2,3-b]pyridin-2-yl)-1H-pyrazolo[3,4-c]pyridin-5-yl)-N-isopropylpyridin-3-amine] has an EC50 (SW480 colon cancer cells) of 179 nM, an EC50 (IL-6 (THP-1 cells)) of 9380 nM and an EC50 [1] of 223 nM. For the same compound, the EC50 [2] was 43 nM.

With `CC(C)Nc1cncc(-c2cc3c(-c4cc5c(N6CCCCC6)ccnc5[nH]4)n[nH]c3cn2)c1` [Compound 180, N-Isopropyl-5-(3-(4-(piperidin-1-yl)-1H-pyrrolo[2,3-b]pyridin-2-yl)-1H-pyrazolo[3,4-c]pyridin-5-yl)pyridin-3-amine] the EC50 (SW480 colon cancer cells) was 1540 nM, the EC50 (IL-6 (THP-1 cells)) was 9550 nM and the EC50 [1] was 1630 nM. It also gave an EC50 [2] of 2430 nM.

In the case of `CC(C)(C)CC(=O)Nc1cncc(-c2cc3c(-c4cc5c(N6CCCCC6)ccnc5[nH]4)n[nH]c3cn2)c1` [Compound 184, 3,3-Dimethyl-N-(5-(3-(4-(piperidin-1-yl)-1H-pyrrolo[2,3-b]pyridin-2-yl)-1H-pyrazolo[3,4-c]pyridin-5-yl)pyridin-3-yl)butanamide], the EC50 (SW480 colon cancer cells) is reported as 4300 nM, the EC50 (IL-6 (THP-1 cells)) is reported as 3310 nM and the EC50 [1] is reported as 3240 nM. It also gave an EC50 [2] of 1960 nM.

`Fc1ccccc1-c1ccnc2[nH]c(-c3n[nH]c4cnc(-c5ccccn5)cc34)cc12` [Compound 84, 3-(4-(2-Fluorophenyl)-1H-pyrrolo[2,3-b]pyridin-2-yl)-5-(pyridin-2-yl)-1H-pyrazolo[3,4-c]pyridine] gave an EC50 (SW480 colon cancer cells) of 411 nM, an EC50 (IL-6 (THP-1 cells)) of 6420 nM and an EC50 [1] of 279 nM. The EC50 [2] was 561 nM.

`c1ccc(-c2cc3c(-c4cc5c(-c6cccs6)ccnc5[nH]4)n[nH]c3cn2)nc1` [Compound 364, 5-(Pyridin-2-yl)-3-(4-(thiophen-2-yl)-1H-pyrrolo[2,3-b]pyridin-2-yl)-1H-pyrazolo[3,4-c]pyridine] gave an EC50 (SW480 colon cancer cells) of 706 nM, an EC50 (IL-6 (THP-1 cells)) of 1010 nM and an EC50 [1] of 630 nM. For the same compound, the EC50 [2] was 403 nM.

Compound `c1cncc(-c2cc3c(-c4cc5c(N6CCCCC6)ccnc5[nH]4)n[nH]c3cn2)c1` [Compound 172, 3-(4-(Piperidin-1-yl)-1H-pyrrolo[2,3-b]pyridin-2-yl)-5-(pyridin-3-yl)-1H-pyrazolo[3,4-c]pyridine] has an EC50 (SW480 colon cancer cells) of 3540 nM, an EC50 (IL-6 (THP-1 cells)) of 3400 nM and an EC50 [1] of 2240 nM. For the same compound, the EC50 [2] was 1730 nM.

Work on `c1csc(-c2ccnc3[nH]c(-c4n[nH]c5cnc(-c6cncc(CN7CCCCC7)c6)cc45)cc23)c1` [Compound 351, 5-(5-(Piperidin-1-ylmethyl)pyridin-3-yl)-3-(4-(thiophen-2-yl)-1H-pyrrolo [2,3-b]pyridin-2-yl)-1H-pyrazolo[3,4-c]pyridine] yielded an EC50 (SW480 colon cancer cells) of 4100 nM, an EC50 (IL-6 (THP-1 cells)) of 182 nM and an EC50 [1] of 6900 nM. For the same compound, the EC50 [2] was 2560 nM.
